The text below walks through data of ChEMBL document CHEMBL1201862, “PubChem BioAssay data set” (2004).

Activity calls are given as the source filed them.

The target of test [1] is Dual specificity tyrosine-phosphorylation-regulated kinase 1A (Homo sapiens, UniProt Q13627). The test is classed as functional.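 Note: measured against DYRK1A as one member of a broad kinome profiling panel.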
The target of test [2] is ALK tyrosine kinase receptor (Homo sapiens, UniProt Q9UM73). The test is classed as functional.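 Note: ALK tested as one member of a kinase panel screen.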
Test [3] has as its target Tyrosine-protein kinase JAK2 (Homo sapiens, UniProt O60674). The test is classed as functional.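 Note: JAK2 tested as one member of a kinase panel.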
The target in test [4] is Leucine-rich repeat serine/threonine-protein kinase 2 (Homo sapiens, UniProt Q5S007). Type of test: functional.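 Note: value from a broad kinome-wide panel profiling study in which LRRK2 was one of the kinases tested.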
Test [5] addresses Glycogen synthase kinase-3 alpha (Homo sapiens, UniProt P49840). Type of test: functional.
In test [6] the target is Serine/threonine-protein kinase TBK1 (Homo sapiens, UniProt Q9UHD2). The test is described as follows: Navigating the Kinome. Panel member name: TBK1. The test is classed as functional.
Test [7] has as its target Serine/threonine-protein kinase PAK 4 (Homo sapiens, UniProt O96013). The test is classed as functional.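 Note: value obtained within a kinome profiling panel in which PAK4 was one of the panel members.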
For test [8], the target named is Aurora kinase B (Homo sapiens, UniProt Q96GD4). Type of test: functional.
Test [9] addresses Serine/threonine-protein kinase Chk1 (Homo sapiens, UniProt O14757). The test is classed as functional.
The target in test [10] is Inhibitor of nuclear factor kappa-B kinase subunit epsilon (Homo sapiens, UniProt Q14164). The test is described as follows: Navigating the Kinome. Panel member name: IKBKE. Type of test: functional.
For test [11], the target named is Tyrosine-protein kinase ABL1 (Homo sapiens, UniProt P00519). Type of test: functional.
In test [12] the target is Casein kinase I isoform alpha (Homo sapiens, UniProt P48729). Type of test: functional.
Test [13] concerns the target Vascular endothelial growth factor receptor 2 (Homo sapiens, UniProt P35968). Type of test: functional.
For test [14], the target named is Mitogen-activated protein kinase 9 (Homo sapiens, UniProt P45984). Type of test: functional.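 Note: value from a kinome panel profiling assay, MAPK9 panel entry.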
Test [15] concerns the target Receptor-type tyrosine-protein kinase FLT3 (Homo sapiens, UniProt P36888). The test is classed as functional.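 Note: FLT3 was tested as one member of a kinome-wide kinase panel.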
Test [16] has as its target Mitogen-activated protein kinase 8 (Homo sapiens, UniProt P45983). Type of test: functional.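 Note: value comes from one member of a kinome-wide kinase profiling panel.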
The target in test [17] is Cyclin-dependent kinase 9 (Homo sapiens, UniProt P50750). The test is classed as functional.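 Note: value from the CDK9 entry of a kinome-spanning kinase panel.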
In test [18] the target is Serine/threonine-protein kinase Nek2 (Homo sapiens, UniProt P51955). The test is classed as functional.
In test [19] the target is Vascular endothelial growth factor receptor 1 (Homo sapiens, UniProt P17948). Type of test: functional.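 Note: measured within a kinome-wide profiling panel, FLT1 as the panel member.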
The target in test [20] is T1, Sentrin-specific protease 8 (Homo sapiens, UniProt Q96LD8).
T1 sequence (Q96LD8 whole entry): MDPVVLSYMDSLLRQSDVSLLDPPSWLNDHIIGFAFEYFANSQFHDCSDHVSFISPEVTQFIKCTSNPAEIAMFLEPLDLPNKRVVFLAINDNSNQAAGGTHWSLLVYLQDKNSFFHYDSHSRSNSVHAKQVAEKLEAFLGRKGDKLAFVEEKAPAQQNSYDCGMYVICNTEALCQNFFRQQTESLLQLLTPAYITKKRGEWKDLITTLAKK
Type of test: functional.

The target in test [21] is T2, SUMO-activating enzyme (Homo sapiens, UniProt Q9UBT2). The test is described as follows: inhibitors of in vitro SUMOylation cascade, primary screen, biochemical, HTRF, uHTS (AID 2006). Type of test: protein-complex assay.
The target of test [22] is T2, SUMO-activating enzyme. Description: SUMOylation inhibitor hit validation, confirmation, SUMOylation inhibitor project, biochemical, AlphaScreen (AID 2018). Type of test: functional.
The target of test [23] is Serine/threonine-protein phosphatase (Homo sapiens, UniProt Q9BPW0). The test is described as follows: PP5 phosphatase inhibitors, dose response, biochemical, fluorescence (AID 2395).
In test [24] the target is Nonstructural protein 1 (Influenza A virus, UniProt Q194T2). Type of test: functional, Influenza A virus (A/California/07/2009(H1N1)).
For test [25], the target named is T3, Insulin-degrading enzyme (Homo sapiens, UniProt P14735).
T3 sequence (P14735 whole entry): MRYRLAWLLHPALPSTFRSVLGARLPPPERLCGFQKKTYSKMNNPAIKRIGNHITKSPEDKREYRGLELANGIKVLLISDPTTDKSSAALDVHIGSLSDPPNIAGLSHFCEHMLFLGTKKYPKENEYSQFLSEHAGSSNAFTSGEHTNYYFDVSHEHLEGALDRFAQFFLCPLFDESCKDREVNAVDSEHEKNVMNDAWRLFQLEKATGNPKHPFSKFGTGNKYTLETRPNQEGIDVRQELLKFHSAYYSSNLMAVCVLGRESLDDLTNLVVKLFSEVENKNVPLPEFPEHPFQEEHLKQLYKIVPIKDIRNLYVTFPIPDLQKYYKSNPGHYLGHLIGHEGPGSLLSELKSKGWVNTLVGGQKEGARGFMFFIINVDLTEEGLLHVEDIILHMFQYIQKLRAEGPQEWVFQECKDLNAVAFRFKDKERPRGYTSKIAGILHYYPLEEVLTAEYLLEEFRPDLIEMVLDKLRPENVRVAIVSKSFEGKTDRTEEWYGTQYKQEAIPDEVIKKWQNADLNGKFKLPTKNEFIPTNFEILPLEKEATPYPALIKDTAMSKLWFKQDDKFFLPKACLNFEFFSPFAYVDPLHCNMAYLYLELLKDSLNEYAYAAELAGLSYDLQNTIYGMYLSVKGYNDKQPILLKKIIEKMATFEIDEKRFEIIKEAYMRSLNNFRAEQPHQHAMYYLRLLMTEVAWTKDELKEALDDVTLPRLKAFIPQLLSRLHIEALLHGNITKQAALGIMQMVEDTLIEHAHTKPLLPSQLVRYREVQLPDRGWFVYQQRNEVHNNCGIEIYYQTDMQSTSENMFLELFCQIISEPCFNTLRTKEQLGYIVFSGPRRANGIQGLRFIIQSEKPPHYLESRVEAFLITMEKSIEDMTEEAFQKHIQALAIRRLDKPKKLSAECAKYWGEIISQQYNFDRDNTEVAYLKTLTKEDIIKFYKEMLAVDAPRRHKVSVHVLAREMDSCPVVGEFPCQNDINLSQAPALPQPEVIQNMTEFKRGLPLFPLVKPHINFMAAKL
The test is described as follows: activators of endogenous IDE in HEK cells, dose response, cell-based, fluorescence polarization (AID 588439). Type of test: functional.

Test [26] can be described thus: C. albicans growth with fluconazole, confirmation, fluorescence, retest (AID 2467). Type of test: functional, cell-based.
Test [27] has as its target Genome polyprotein (dengue virus type 2, UniProt P29990). The test is described as follows: Dengue-2 NS5 methyltransferase inhibitors, primary screen, biochemical, confirmation dose response (AID 588689). The test is classed as functional.

T2 sequence (Q9UBE0 whole entry): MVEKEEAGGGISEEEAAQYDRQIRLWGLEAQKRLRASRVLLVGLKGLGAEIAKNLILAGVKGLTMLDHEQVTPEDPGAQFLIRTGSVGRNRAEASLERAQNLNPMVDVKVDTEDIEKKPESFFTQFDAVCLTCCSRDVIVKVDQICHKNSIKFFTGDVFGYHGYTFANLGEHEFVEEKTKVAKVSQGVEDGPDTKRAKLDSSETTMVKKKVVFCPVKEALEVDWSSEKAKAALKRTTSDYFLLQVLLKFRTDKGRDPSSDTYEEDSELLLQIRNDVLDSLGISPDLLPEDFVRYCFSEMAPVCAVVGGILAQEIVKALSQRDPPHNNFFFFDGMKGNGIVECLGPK
T2 sequence (Q9UBT2 whole entry): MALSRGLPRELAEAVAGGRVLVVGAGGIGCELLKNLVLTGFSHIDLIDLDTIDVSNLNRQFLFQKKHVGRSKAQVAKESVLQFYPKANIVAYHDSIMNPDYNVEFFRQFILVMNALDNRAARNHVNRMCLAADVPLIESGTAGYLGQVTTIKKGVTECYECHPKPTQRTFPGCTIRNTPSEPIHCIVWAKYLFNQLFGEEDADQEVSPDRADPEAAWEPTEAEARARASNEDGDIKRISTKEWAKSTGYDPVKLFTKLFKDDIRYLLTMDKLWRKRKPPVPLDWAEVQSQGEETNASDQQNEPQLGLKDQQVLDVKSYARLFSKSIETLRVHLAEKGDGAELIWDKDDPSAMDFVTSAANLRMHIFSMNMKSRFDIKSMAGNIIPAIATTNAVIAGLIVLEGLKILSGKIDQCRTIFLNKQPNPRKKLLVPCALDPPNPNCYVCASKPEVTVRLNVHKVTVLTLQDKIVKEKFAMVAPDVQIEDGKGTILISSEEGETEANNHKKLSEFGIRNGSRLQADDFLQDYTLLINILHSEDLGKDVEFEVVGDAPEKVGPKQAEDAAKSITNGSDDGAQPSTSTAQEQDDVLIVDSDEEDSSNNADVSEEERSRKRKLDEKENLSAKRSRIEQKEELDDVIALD
Chain of ALK tyrosine kinase receptor (Q9UM73 whole entry): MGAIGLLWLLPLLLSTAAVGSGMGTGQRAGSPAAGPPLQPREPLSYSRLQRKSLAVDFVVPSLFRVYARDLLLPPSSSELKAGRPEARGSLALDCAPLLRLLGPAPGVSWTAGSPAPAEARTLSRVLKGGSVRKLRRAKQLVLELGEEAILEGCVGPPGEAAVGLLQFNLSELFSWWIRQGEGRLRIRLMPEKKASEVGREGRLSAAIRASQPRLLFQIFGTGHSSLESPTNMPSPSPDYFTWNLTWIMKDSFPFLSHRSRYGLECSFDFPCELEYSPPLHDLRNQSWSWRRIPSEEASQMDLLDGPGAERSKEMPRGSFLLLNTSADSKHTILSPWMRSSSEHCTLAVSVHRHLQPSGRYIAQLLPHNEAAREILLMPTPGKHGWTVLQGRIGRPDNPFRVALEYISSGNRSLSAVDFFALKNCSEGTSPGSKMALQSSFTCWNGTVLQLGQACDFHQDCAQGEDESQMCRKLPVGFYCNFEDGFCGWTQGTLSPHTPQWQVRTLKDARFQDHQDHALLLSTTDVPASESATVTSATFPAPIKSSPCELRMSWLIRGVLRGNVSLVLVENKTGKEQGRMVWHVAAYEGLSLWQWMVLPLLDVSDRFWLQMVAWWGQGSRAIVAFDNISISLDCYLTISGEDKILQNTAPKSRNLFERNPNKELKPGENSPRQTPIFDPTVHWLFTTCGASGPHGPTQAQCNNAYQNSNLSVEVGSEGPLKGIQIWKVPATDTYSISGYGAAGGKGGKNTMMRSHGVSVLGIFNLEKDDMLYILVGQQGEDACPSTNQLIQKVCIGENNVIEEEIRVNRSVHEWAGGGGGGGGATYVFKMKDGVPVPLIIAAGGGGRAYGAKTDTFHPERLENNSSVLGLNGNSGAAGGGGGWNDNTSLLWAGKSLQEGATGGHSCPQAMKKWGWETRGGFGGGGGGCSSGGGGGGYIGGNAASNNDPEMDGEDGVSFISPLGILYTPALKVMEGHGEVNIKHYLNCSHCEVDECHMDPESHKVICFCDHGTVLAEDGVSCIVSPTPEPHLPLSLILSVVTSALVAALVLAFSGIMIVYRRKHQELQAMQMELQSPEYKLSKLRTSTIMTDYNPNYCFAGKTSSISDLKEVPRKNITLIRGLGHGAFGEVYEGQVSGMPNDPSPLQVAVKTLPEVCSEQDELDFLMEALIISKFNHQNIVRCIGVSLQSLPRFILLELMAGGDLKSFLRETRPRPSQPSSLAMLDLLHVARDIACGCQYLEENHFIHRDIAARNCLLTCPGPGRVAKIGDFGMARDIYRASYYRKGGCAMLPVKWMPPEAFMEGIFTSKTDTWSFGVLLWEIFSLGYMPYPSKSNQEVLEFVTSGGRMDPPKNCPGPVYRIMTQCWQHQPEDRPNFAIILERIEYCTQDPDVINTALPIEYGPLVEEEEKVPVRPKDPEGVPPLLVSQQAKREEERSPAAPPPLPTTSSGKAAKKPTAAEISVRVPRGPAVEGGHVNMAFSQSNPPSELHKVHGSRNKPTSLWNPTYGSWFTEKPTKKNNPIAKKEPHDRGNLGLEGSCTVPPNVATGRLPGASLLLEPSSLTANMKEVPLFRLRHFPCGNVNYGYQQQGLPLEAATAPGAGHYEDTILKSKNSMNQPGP
Chain of Serine/threonine-protein kinase PAK 4 (O96013 whole entry): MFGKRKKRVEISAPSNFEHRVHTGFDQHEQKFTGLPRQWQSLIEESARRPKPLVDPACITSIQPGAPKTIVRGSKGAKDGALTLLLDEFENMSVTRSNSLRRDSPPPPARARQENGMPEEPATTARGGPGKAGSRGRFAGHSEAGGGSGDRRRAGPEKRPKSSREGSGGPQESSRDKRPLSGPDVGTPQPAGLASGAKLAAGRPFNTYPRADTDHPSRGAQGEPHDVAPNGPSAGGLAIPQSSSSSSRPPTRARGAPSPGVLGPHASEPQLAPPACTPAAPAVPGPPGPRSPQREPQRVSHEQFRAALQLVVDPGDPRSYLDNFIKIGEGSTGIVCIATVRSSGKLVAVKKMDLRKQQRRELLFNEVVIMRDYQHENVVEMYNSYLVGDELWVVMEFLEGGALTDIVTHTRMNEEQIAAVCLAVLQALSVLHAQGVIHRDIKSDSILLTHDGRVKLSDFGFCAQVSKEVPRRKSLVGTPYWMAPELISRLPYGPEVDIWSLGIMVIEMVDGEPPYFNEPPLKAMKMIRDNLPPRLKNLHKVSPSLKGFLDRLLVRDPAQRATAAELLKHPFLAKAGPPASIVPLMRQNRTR
Chain of Mitogen-activated protein kinase 8 (P45983 whole entry): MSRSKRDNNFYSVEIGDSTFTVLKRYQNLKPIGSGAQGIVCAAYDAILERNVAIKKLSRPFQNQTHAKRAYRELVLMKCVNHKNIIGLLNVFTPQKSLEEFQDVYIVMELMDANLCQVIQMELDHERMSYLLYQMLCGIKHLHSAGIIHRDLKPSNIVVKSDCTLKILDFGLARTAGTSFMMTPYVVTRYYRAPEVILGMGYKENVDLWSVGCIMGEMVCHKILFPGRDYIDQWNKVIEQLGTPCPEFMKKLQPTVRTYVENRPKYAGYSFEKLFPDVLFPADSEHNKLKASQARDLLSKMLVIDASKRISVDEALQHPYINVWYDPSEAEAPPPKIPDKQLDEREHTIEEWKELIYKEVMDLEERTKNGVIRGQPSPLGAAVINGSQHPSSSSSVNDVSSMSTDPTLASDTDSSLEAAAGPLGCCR
Chain of Casein kinase I isoform alpha (P48729 whole entry, canonical isoform): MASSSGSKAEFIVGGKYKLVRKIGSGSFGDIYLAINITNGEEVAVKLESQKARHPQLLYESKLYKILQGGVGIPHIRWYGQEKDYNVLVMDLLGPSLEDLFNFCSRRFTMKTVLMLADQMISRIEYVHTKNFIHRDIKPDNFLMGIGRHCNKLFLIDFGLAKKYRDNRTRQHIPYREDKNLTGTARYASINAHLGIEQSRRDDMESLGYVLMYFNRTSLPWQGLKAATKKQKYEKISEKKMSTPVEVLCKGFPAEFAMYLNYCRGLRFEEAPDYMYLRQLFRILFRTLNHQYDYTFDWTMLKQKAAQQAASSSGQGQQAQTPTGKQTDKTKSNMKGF
Chain of Nonstructural protein 1 (Q194T2 whole entry): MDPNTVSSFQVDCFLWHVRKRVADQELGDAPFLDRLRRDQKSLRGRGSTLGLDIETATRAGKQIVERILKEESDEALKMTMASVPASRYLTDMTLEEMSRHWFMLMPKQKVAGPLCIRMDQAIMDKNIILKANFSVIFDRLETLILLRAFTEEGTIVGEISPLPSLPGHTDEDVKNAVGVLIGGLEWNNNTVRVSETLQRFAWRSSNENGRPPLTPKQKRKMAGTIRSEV
Chain of Serine/threonine-protein kinase Chk1 (O14757 whole entry): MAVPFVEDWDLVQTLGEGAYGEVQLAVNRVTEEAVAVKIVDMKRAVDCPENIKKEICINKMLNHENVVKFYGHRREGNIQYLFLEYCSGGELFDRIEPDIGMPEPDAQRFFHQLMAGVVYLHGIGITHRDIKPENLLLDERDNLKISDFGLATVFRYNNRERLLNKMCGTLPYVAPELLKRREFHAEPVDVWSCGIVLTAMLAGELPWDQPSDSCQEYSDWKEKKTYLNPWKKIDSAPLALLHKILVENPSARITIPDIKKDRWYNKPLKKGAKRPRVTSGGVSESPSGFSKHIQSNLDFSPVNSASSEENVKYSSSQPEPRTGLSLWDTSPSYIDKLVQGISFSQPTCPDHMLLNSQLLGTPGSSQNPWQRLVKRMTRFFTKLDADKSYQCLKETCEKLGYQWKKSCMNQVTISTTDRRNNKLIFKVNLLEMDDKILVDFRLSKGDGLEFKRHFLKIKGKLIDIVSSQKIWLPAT
Chain of Aurora kinase B (Q96GD4 whole entry): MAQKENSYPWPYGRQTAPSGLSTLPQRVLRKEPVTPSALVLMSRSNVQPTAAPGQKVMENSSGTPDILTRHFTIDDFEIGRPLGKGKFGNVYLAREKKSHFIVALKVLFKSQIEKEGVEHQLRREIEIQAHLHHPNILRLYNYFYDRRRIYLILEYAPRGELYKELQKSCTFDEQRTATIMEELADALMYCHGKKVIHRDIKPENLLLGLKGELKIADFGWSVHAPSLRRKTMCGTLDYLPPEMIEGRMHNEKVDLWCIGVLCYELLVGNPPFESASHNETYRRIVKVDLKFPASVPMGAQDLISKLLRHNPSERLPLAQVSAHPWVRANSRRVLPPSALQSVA

Consider `O=C(Cc1cccs1)Nc1nc2ccccc2s1`, for which the inhibition constant Ki in test [1] is 501 nM (active); in test [2], 2510 nM (active); in test [3] it was > 2510 nM (inactive); in [4] it was 794 nM (active); in [5] it was > 3980 nM (inactive); in [6] it was 2510 nM (active). Moreover, the Ki is > 5010 nM (inactive) in [7]; 1000 nM (active) in test [8]; 316 nM (active) in test [9]; > 3160 nM (inactive) in test [10]; > 2510 nM (inactive) in test [11]; 631 nM (active) in test [12]. Further, the Ki in [13] was > 2510 nM (inactive); in [14], 3160 nM (active); in test [15] it was > 3160 nM (inactive); in [16] it was 1000 nM (active); in [17], 251 nM (active); in [18] it was 1000 nM (active). For the same compound, the inhibition constant (Ki) in test [19] was 3160 nM (active).

As to `O=C(NNc1cc(N2CCCC2)nc(N2CCCC2)n1)c1ccc([N+](=O)[O-])cc1`, the 50% inhibitory concentration (IC50) was 155 nM (active) in test [20], 5630 nM (active) in test [21], 1820 nM (active) in [22] and > 67000 nM (not active) in test [23].

On to `O=S(=O)(O)c1cccc2c(N=Nc3ccc(O)c4ncccc34)cccc12`, for which the 50% inhibitory concentration (IC50) was 4680 nM (active) in test [24] and 34800 nM (active) in test [27]. Besides, the figures for the EC50 in [25] and in test [26] were 8800 nM (active) and > 38000 nM (not active), respectively.
